# Test results from ChEMBL document CHEMBL5375989, “Pioneering 4,11-Dioxo-4,11-dihydro-1H-anthra[2,3-d]imidazol-3-ium Compounds as Promising Survivin Inhibitors by Targeting ILF3/NF110 for Cancer Therapy” (J Med Chem, 2023).
# Columns and labels:
# [1] = system: A549; test: Antiproliferative activity against human A549 cells assessed as inhibition of cell growth measured after 48 hrs in presence of scramble siRNA by MTT assay; format: functional, cell-based; settings: A549, 48 h
# [2] = Toxicity in BALB/c mouse assessed as morphological changes in lung at 2 to 4 mg/kg by H and E staining based analysis; format: organism-based; settings: in vivo, dose 2-4 mg/kg
# [3] = system: NIH3T3; test: Antiproliferative activity against mouse NIH3T3 cells assessed as inhibition of cell growth measured after 48 hrs by MTT assay; format: toxicity, cell-based; settings: nih3t3
# [4] = system: A549; test: Induction of apoptosis in human A549 cells assessed as late apoptotic cells at 0.1 uM measured after 48 hrs by annexin V and PI staining based flow cytometry analysis (reference value: 4.70%); format: functional
# [5] = system: A549; test: Induction of apoptosis in human A549 cells assessed as viable cells at 0.04 uM measured after 48 hrs by annexin V and PI staining based flow cytometry analysis (reference value: 93.3%); format: functional; settings: Homo sapiens, A549, 48 h, read-out: Activity
# [6] = system: 143B; test: Antiproliferative activity against human 143B cells assessed as inhibition of cell growth measured after 48 hrs by MTT assay; format: functional, cell-based; settings: 143b
# [7] = Toxicity in BALB/c mouse assessed as morphological changes in heart at 2 to 4 mg/kg by H and E staining based analysis; format: organism-based; settings: in vivo, dose 2-4 mg/kg
# [8] = system: 5637; test: cells; settings: Homo sapiens, 5637, 48 h
# Description: Antiproliferative activity against human 5637 cells assessed as inhibition of cell growth measured after 48 hrs by MTT assay
# [9] = Toxicity in BALB/c mouse assessed as morphological changes in spleen at 2 to 4 mg/kg by H and E staining based analysis; format: organism-based; settings: in vivo, dose 2-4 mg/kg
# [10] = Drug uptake in Sprague-Dawley rat blood at 2 mg/kg measured after 24 hrs by UPLC-3Q analysis; format: ADME, organism-based; settings: in vivo
# [11] = system: A549; test: Antitumor activity against human A549 cells xenografted in BALB/c nude mouse assessed as inhibition of tumor growth at 4 mg/kg, sc administered every 2 days for 14 days relative to control; format: functional; set-up: scale not given: the % may be the effect or the level left; settings: time 14 day
# [12] = system: ASPC1; test: Antiproliferative activity against human ASPC1 cells assessed as inhibition of cell growth measured after 48 hrs by MTT assay; format: functional, cell-based; settings: aspc1
# [13] = Toxicity in BALB/c nude mouse assessed as effect on body weight at 2 mg/kg, sc administered every 2 days for 14 days; format: organism-based; settings: in vivo, 336 h, time 14 day
# [14] = system: HeLa; test: Antiproliferative activity against human HeLa cells assessed as inhibition of cell growth measured after 48 hrs by MTT assay; format: functional, cell-based; settings: hela
# [15] = Drug distribution in BALB/C nude mouse heart xenografted with human A549 cells at 2 mg/kg measured after 2 to 6 hrs by UPLC-3Q analysis; format: ADME, organism-based; settings: in vivo, time 2-6 hrs
# [16] = system: A549; test: Induction of apoptosis in human A549 cells assessed as necrotic cells at 0.1 uM measured after 48 hrs by annexin V and PI staining based flow cytometry analysis (reference value: 1.47%); format: functional
# [17] = system: MRC5; test: Antiproliferative activity against human MRC5 cells assessed as inhibition of cell growth measured after 48 hrs by MTT assay; format: toxicity, cell-based; settings: mrc5
# [18] = Toxicity in BALB/c nude mouse assessed as dermatitis at 2 mg/kg, sc administered every 2 days for 14 days; format: organism-based; settings: in vivo, 336 h, time 14 day
structure (smiles),measurement,setting,value
Cn1c[n+](C)c2c1C(=O)c1cc3ccccc3cc1C2=O.[I-],IC50,[1],9 nM
same,Activity,[2],Non-Toxic
same,IC50,[3],14000 nM
same,Activity,[4],81.9%
same,viability at 0.04 µM,[5],27.8%
same,IC50,[6],590 nM
same,Activity,[7],Non-Toxic
same,IC50,[8],180 nM
same,Activity,[9],Non-Toxic
same,Drug uptake,[10],Active
same,Activity,[11],83.6%
same,IC50,[12],250 nM
same,Activity,[13],Non-Toxic
same,IC50,[14],1160 nM
same,Drug uptake,[15],Not Active
same,Activity,[16],6.62%
same,IC50,[17],6900 nM
same,Activity,[18],Non-Toxic
